# Results: PMC10714400, “Antimicrobial Peptide–Peptoid Hybrids with and without Membrane Disruption” (ACS Infectious Diseases, 2023)
# Read-outs that look alike come from different tables or passages of the source. Where a SMILES comes first, the peptide text is derived from it. [ ]: non-standard residue; d: D form. Nleu = CC(C)CNCC(=O)O; Nlys = NCCCCNCC(=O)O
# Columns and labels:
# A. baumannii ATCC19606 = test system: A. baumannii ATCC19606
# Method: (§1) Antimicrobial activity was assayed for all the peptide–peptoids against P. aeruginosa PAO1, K. pneumoniae NCTC418, E. coli W3110, A. baumannii ATCC 19606, methicillin-resistant S. aureus COL (MRSA), and for selected peptides on P. aeruginosa PA14 and the polymyxin-B-resistant derivatives PA14 4.13, PA14 4.18, PA14 2P4, as well as the clinical isolates ZEM-1A and ZEM9A, K. pneumoniae OXA-48, S. aureus Newman, Enterobacter cloacae, Stenotrophomonas maltophilia, Burkholderia cenocepacia, and Staphylococus epidermidis. To determine the Minimal Inhibitory Concentration (MIC), the Broth Microdilution method was used.[72] A colony of bacteria was picked and grown in LB medium overnight at 37 °C.
# (§2) To each well was finally added 4 μL of the diluted bacterial suspension (see above), corresponding to approximately 5 × 10^5 CFU. For each test, two columns of the plate were kept for sterility control (medium only), growth control (medium with bacterial inoculum, no compound). The positive control, Polymyxin B (starting with a concentration of 16 μg/mL) in MH medium with bacterial inocula, was introduced in the two lines of the plate. The plates were incubated at 37 °C for ca. 18 h under static conditions. Next, 15 μL of 3-(4,5-dimethylthiazol-2-yl)-2,5-diphenyltetrazolium bromide (MTT)[73] (1 mg/mL in sterilized MilliQ deionized water) were added to each well, and the plates were incubated for 20–30 min at room temperature. The minimal inhibitory concentration (MIC) was defined as the lowest concentration of the compound that inhibits the visible growth of the tested bacteria (yellow) with the unaided eye.
# E. coli W3110 = test system: E. coli W3110
# Method: as §1, §2
# K. pneumoniae NCTC418 = test system: K. pneumoniae NCTC418
# Method: as §1, §2
# P. aeruginosa PAO1 = test system: P. aeruginosa PAO1
# Method: as §1, §2
# PA14 2P4 (pmrB) = settings: CSV; […] MH at pH 8.5
# Method: as §1, §2
# PA14 4.13 (phoQ) = settings: CSV; […] MH at pH 8.5
# Method: as §1, §2
# PA14 4.18 (pmrB) = settings: […] MH at pH 8.5; for MIC P. aeruginosa PA14 4.18, […] MH at pH 8.5: CSV
# Method: as §1, §2
# S. aureus COL (MRSA) = test system: S. aureus COL (MRSA)
# Method: as §1, §2
# [1] = test system: human red blood cells (hRBC); assay: Minimum hemolytic concentration (MHC); type: cell-based
# Text: We also measured minimal hemolysis concentrations (MHC) on human red blood cells by serial 2-fold dilution as an indication of toxicity against eukaryotic cells (Table 1).
# [2] = Circular dichroism, α-helical content; type: physicochemical; settings: 0.1 mg/mL; for CD %α with 5 mM DPC: 10 mM phosphate buffer pH 7.4, 5 mM DPC; for CD %α with 20% TFE: 10 mM phosphate buffer pH 7.4, 20% TFE
# P. aeruginosa PA14 = settings: Table S3; […] MH at pH 8.5, 16-20 hours at 37 °C
# Method: as §1
# as §2, with “The plates were incubated at 37 °C for ca. 18 h under static conditions.” left out
# S. aureus Newman = settings: Table S3; […] MH at pH 8.5
# Method: as §1
# as §2, with “The plates were incubated at 37 °C for ca. 18 h under static conditions.” left out
compound,measurement,setting,value
"CC(C)C[C@H](NC(=O)[C@H](CCCCN)NC(=O)[C@@H](N)CCCCN)C(=O)N[C@@H](CC(C)C)C(=O)N[C@@H](CCCCN)C(=O)N(CC(=O)N(CC(=O)N(CCCCN)CC(=O)N(CC(=O)N(CC(=O)N(CC(N)=O)CC(C)C)CC(C)C)CC(C)C)CC(C)C)CC(C)C [EB4, KKLLKllklll] (H-KKLLK[Nleu][Nleu][Nlys][Nleu][Nleu][Nleu]-NH2)","MIC A. baumannii ATCC19606, full MH at pH 7.4","A. baumannii ATCC19606; ATCC19606, 4 h, pH 7.4",>32 ug/mL
same,MIC A. baumannii ATCC19606 […] 7.4,"A. baumannii ATCC19606; Table S2, […] MH, pH 7.4",32 µg/mL
same,MIC A. baumannii ATCC19606 […] 8.5,"A. baumannii ATCC19606; Table S2, […] MH, pH 8.5",16 µg/mL
same,MIC A. baumannii ATCC19606 Full MH 7.4,"A. baumannii ATCC19606; Table S2, full MH, pH 7.4",> 32 µg/mL
same,MIC A. baumannii ATCC19606 Full MH 8.5,"A. baumannii ATCC19606; Table S2, full MH, pH 8.5",16 µg/mL
same,"MIC E. coli W3110, […] MH at pH 7.4",E. coli W3110; CSV,8 ug/mL
same,"MIC E. coli W3110, full MH at pH 7.4",E. coli W3110; CSV,>32 ug/mL
same,"MIC E. coli W3110, full MH at pH 8.5",E. coli W3110; CSV,8 ug/mL
same,MIC E. coli W3110 […] 7.4,"E. coli W3110; Table S2, […] MH, pH 7.4",8 µg/mL
same,MIC E. coli W3110 […] 8.5,"E. coli W3110; Table S2, […] MH, pH 8.5",2 µg/mL
same,MIC E. coli W3110 Full MH 7.4,"E. coli W3110; Table S2, full MH, pH 7.4",> 32 µg/mL
same,MIC E. coli W3110 Full MH 8.5,"E. coli W3110; Table S2, full MH, pH 8.5",8 µg/mL
same,"MIC K. pneumoniae NCTC418, full MH at pH 7.4","K. pneumoniae NCTC418; NCTC418, 4 h, pH 7.4",>32 ug/mL
same,MIC K. pneumoniae NCTC418 […] 7.4,"K. pneumoniae NCTC418; Table S2, […] MH, pH 7.4",> 32 µg/mL
same,MIC K. pneumoniae NCTC418 […] 8.5,"K. pneumoniae NCTC418; Table S2, […] MH, pH 8.5",32 µg/mL
same,MIC K. pneumoniae NCTC418 Full MH 7.4,"K. pneumoniae NCTC418; Table S2, full MH, pH 7.4",> 32 µg/mL
same,MIC K. pneumoniae NCTC418 Full MH 8.5,"K. pneumoniae NCTC418; Table S2, full MH, pH 8.5",16 µg/mL
same,"MIC P. aeruginosa PAO1, full MH at pH 7.4","P. aeruginosa PAO1; PAO1, 4 h, pH 7.4",>32 ug/mL
same,MIC P. aeruginosa PAO1 […] 8.5,"P. aeruginosa PAO1; Table S2, […] MH, pH 8.5",4 µg/mL
same,MIC P. aeruginosa PAO1 Full MH 7.4,"P. aeruginosa PAO1; Table S2, full MH, pH 7.4",> 32 µg/mL
same,"MIC P. aeruginosa PA14 2P4, […] MH at pH 8.5",PA14 2P4 (pmrB),16 ug/mL
same,"MIC P. aeruginosa PA14 4.13, […] MH at pH 8.5",PA14 4.13 (phoQ),8 ug/mL
same,"MIC P. aeruginosa PA14 4.18, […] MH at pH 8.5",PA14 4.18 (pmrB),24 ug/mL
same,MIC P. aeruginosa PA14 4.18,PA14 4.18 (pmrB); Table S3,16 to 32 µg/mL
same,"MIC S. aureus COL (MRSA), full MH at pH 7.4","S. aureus COL (MRSA); COL, 4 h, pH 7.4",>32 ug/mL
same,MIC S. aureus COL (MRSA) […] 7.4,"S. aureus COL (MRSA); Table S2, […] MH, pH 7.4",32 µg/mL
same,MIC S. aureus COL (MRSA) Full MH 7.4,"S. aureus COL (MRSA); Table S2, full MH, pH 7.4",> 32 µg/mL
same,MIC S. aureus COL (MRSA) Full MH 8.5,"S. aureus COL (MRSA); Table S2, full MH, pH 8.5",16 µg/mL
same,Hemolysis,[1],none of them showed any measurable hemolysis
same,MHC,[1],>2000 µg/mL
same,CD %α with 5 mM DPC,"[2]; DichroWeb, Contin-LL",9%
same,CD %α with 20% TFE,"[2]; DichroWeb, Contin-LL",11%
same,CD %α with 5 mM DPC,[2]; Table S2,9%
same,CD %α with 20% TFE,[2]; Table S2,11%
same,MIC P. aeruginosa PA14,P. aeruginosa PA14,4 µg/mL
same,MIC S. aureus Newman,S. aureus Newman,8 µg/mL
"CC(C)C[C@H](NC(=O)[C@H](CC(C)C)NC(=O)[C@H](CC(C)C)NC(=O)CN(CCCCN)C(=O)[C@H](CC(C)C)NC(=O)[C@H](CC(C)C)NC(=O)CN(CCCCN)C(=O)[C@H](CC(C)C)NC(=O)[C@H](CC(C)C)NC(=O)CN(CCCCN)C(=O)CNCCCCN)C(N)=O [EB7, kkLLkLLkLLL] (H-[Nlys][Nlys]LL[Nlys]LL[Nlys]LLL-NH2)","MIC A. baumannii ATCC19606, full MH at pH 7.4","A. baumannii ATCC19606; ATCC19606, 4 h, pH 7.4",>32 ug/mL
same,"MIC A. baumannii ATCC19606, full MH at pH 8.5","A. baumannii ATCC19606; ATCC19606, 4 h, pH 8.5",4 ug/mL
same,MIC A. baumannii ATCC19606 Full,"A. baumannii ATCC19606; ATCC19606, pH 7.4",>32 µg/mL
same,"MIC E. coli W3110, […] MH at pH 7.4",E. coli W3110; CSV,4 ug/mL
same,"MIC E. coli W3110, […] MH at pH 8.5","E. coli W3110; CSV, […] MH at pH 8.5",1 ug/mL
same,"MIC E. coli W3110, full MH at pH 7.4",E. coli W3110; CSV,16 ug/mL
same,"MIC E. coli W3110, full MH at pH 8.5",E. coli W3110; CSV,4 ug/mL
same,MIC E. coli W3110 […],"E. coli W3110; diluted MH ([…] MH, pH 8.5) per Table 1 footnote b, 16–20 h at 37 °C",4 µg/mL
same,MIC E. coli W3110 Full,"E. coli W3110; full MH, pH 7.4, 16–20 h at 37 °C",16 µg/mL
same,"MIC K. pneumoniae NCTC418, full MH at pH 7.4","K. pneumoniae NCTC418; NCTC418, 4 h, pH 7.4",>32 ug/mL
same,"MIC K. pneumoniae NCTC418, full MH at pH 8.5","K. pneumoniae NCTC418; NCTC418, 4 h, pH 8.5",4 ug/mL
same,"MIC P. aeruginosa PAO1, full MH at pH 7.4","P. aeruginosa PAO1; PAO1, 4 h, pH 7.4",32 ug/mL
same,"MIC P. aeruginosa PAO1, full MH at pH 8.5","P. aeruginosa PAO1; PAO1, 4 h, pH 8.5",8 ug/mL
same,"MIC P. aeruginosa PA14 2P4, […] MH at pH 8.5",PA14 2P4 (pmrB),16 ug/mL
same,"MIC P. aeruginosa PA14 4.13, […] MH at pH 8.5",PA14 4.13 (phoQ),4 ug/mL
same,"MIC P. aeruginosa PA14 4.18, […] MH at pH 8.5",PA14 4.18 (pmrB),8 ug/mL
same,"MIC S. aureus COL (MRSA), full MH at pH 7.4","S. aureus COL (MRSA); COL, 4 h, pH 7.4",>32 ug/mL
same,MIC S. aureus COL (MRSA) Full MH 8.5,"S. aureus COL (MRSA); COL, 4 h, pH 8.5",4 to 8 µg/mL
same,"MIC S. aureus COL (MRSA), full MH at pH 8.5","S. aureus COL (MRSA); COL, 4 h, pH 8.5",6 ug/mL
same,MIC S. aureus COL (MRSA) Full,"S. aureus COL (MRSA); COL, pH 7.4",>32 µg/mL
same,Hemolysis,[1],none of them showed any measurable hemolysis
same,MHC,[1],>2000 µg/mL
